Results from the supplement of paper PMC10307832.

Experiments:
Assay in all cases: relative viability (nuclei count vs DMSO), 5 days (fraction); higher = more cells survive
[1] = compound: Cn1cc(-c2cnn3c(N)c(Br)c([C@@H]4CCCNC4)nc23)cn1 + COc1cc2c(Oc3ccc(NC(=O)C4(C(=O)Nc5ccc(F)cc5)CC4)cc3F)ccnc2cc1OCCCN1CCOCC1 [Foretinib] (partner 0.25 µM)
Summary of the method: (§1)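 Relative viability was taken as the ratio of nuclei in treated wells to nuclei in vehicle wells. Lung cancer cell lines in 1536-well plates received compounds by pin tool one day after seeding, either one drug alone or a fixed anchor-drug dose plus five library-drug doses (not always all listed) in √10 steps. Nuclei were counted on 4× images after 5 days of treatment, and values are medians of duplicate plates.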

[2] = compound: Cn1cc(-c2cnn3c(N)c(Br)c([C@@H]4CCCNC4)nc23)cn1 + NC(=O)Nc1cc(-c2cccc(F)c2)sc1C(=O)N[C@H]1CCCNC1 [AZD7762] (partner 0.2 µM)
Summary of the method: as §1

[3] = compound: Cn1cc(-c2cnn3c(N)c(Br)c([C@@H]4CCCNC4)nc23)cn1 + CCNC(=O)c1noc(-c2cc(C(C)C)c(O)cc2O)c1-c1ccc(CN2CCOCC2)cc1 [Luminespib] (partner 0.01 µM)
Summary of the method: as §1

[4] = compound: Cn1cc(-c2cnn3c(N)c(Br)c([C@@H]4CCCNC4)nc23)cn1 + Cc1cc(Nc2cc(N3CCN(C)CC3)nc(Sc3ccc(NC(=O)C4CC4)cc3)n2)n[nH]1 [Tozasertib] (partner 0.1 µM)
Summary of the method: as §1

Cell Line | relative viability ([1]; first compound 0.05 µM) | relative viability ([1]; first compound 0.1581 µM) | relative viability ([1]; first compound 0.5 µM) | relative viability ([1]; first compound 1.581 µM) | relative viability ([1]; first compound 5 µM) | relative viability ([2]; first compound 0.05 µM) | relative viability ([2]; first compound 0.1581 µM) | relative viability ([2]; first compound 0.5 µM) | relative viability ([2]; first compound 1.581 µM) | relative viability ([2]; first compound 5 µM) | relative viability ([3]; first compound 0.05 µM) | relative viability ([3]; first compound 0.1581 µM) | relative viability ([3]; first compound 0.5 µM) | relative viability ([3]; first compound 1.581 µM) | relative viability ([3]; first compound 5 µM) | relative viability ([4]; first compound 0.05 µM) | relative viability ([4]; first compound 0.1581 µM) | relative viability ([4]; first compound 0.5 µM) | relative viability ([4]; first compound 1.581 µM) | relative viability ([4]; first compound 5 µM)
NCI-H1703 | 0.334 | 0.288 | 0.337 | 0.196 | 0.178 | 0.0942 | 0.119 | 0.139 | 0.102 | 0.098 |  |  |  |  |  |  |  |  |  | 
NCI-H1792 |  |  |  |  |  | 0.613 | 1.3 | 0.729 |  | 0.412 | 0.488 | 0.616 | 0.439 | 0.79 | 0.317 |  |  |  |  | 
NCI-H2009 | 1.24 | 1.32 | 1.05 | 1.16 | 1.14 |  |  |  |  |  | 1.04 | 1.09 | 0.98 | 0.962 | 0.889 | 0.745 | 0.702 | 0.651 | 0.565 | 0.448
NCI-H2023 | 0.785 | 0.604 | 0.688 | 0.201 | 0.178 |  |  |  |  |  | 0.873 | 0.305 | 0.234 | 0.167 | 0.123 | 0.361 | 0.254 | 0.238 | 0.15 | 0.122
NCI-H2228 | 0.747 | 0.942 | 0.671 | 0.738 | 0.433 |  |  |  |  |  | 0.138 | 0.132 | 0.212 | 0.124 | 0.112 | 0.249 | 0.221 | 0.205 | 0.211 | 0.124
SK-LU-1 | 0.819 | 0.709 | 0.485 | 0.28 | 0.211 |  |  |  |  |  | 0.184 | 0.207 | 0.233 | 0.186 | 0.165 | 0.35 | 0.193 | 0.192 | 0.201 | 0.169
SK-MES-1 | 0.909 | 1.04 | 0.946 | 0.867 | 0.566 |  |  |  |  |  | 0.651 | 0.406 | 0.419 | 0.24 | 0.187 | 0.987 | 0.675 | 0.57 | 0.268 | 0.137
SW 1573 | 0.97 | 1.09 | 0.865 | 0.848 | 1.01 |  |  |  |  |  | 0.211 | 0.288 | 0.21 | 0.185 | 0.146 | 0.175 | 0.175 | 0.17 | 0.176 | 0.149
UMC-11 | 1 | 0.984 | 0.851 | 0.773 | 0.51 |  |  |  |  |  | 1.11 | 0.884 | 0.972 | 0.556 | 0.392 | 0.276 | 0.204 | 0.217 | 0.205 | 0.187
